We go through three molecules from patent US20230374460A1, “Methods for Cardiac Differentiation of Human Induced Pluripotent Stem Cells” (The Trustees of Columbia University in the City of New York, priority 2015, published 2023).

Structures are written as SMILES.

For experiment [1], the system named is human iPSC lines. The experiment can be described thus: Monolayer cardiac differentiation of iPSCs into beating cardiomyocytes (serum-containing protocol, optimisation of GSK3 inhibitor dose and oxygen level). The note with it: single use, 20% O2. It counts as cell-based. From the text: CHIR99021 (GSK3 inhibitor, #1386, Lot #6 & #7, Axon MedChem) and BIO (GSK3 inhibitor IX, #361550, Lot #D00148116, Calbiochem) (Minami et al., Cell reports 2, 1448-1460(2012)), IWP-3 (Wnt inhibitor, #SML0533, Lot #102m4613V, Sigma-Aldrich) resolved in Dimethyl Sulfoxide (DMSO, #276855, Sigma-Aldrich) were used for monolayer differentiation of iPSCs plated on Geltrex in 6-well plate or 10 cm dish. To prepare differentiating culture media, only one freeze and thaw cycle was confirmed for all aliquots of small compounds CHIR99021 and BIO and recombinant human growth factors. Twice freeze and thaw cycle was confirmed for IWP-3 aliquots. For the differentiation protocol with serum-containing media, DF20/5 media was used for cardiac differentiation and culture: DMEM/F-12 (with GlutaMax I) containing 20% or 5% Hyclone FBS, 1% non-essential amino acid, P.S. and 0.1 mM bME. Additional D-glucose was added to only DF20 as high glucose media (final 4.5 g/l) to enhance mesoderm differentiation from Day 1 to Day 4. For BIO and CHIR treatment, media was changed everyday. For IWP-3 treatment, media was changed every other day. DF5 media was used for the maintenance of cardiomyocytes after differentiation (Day 11˜) and media was changed every other day. Changed media using DF20 with small compounds required ˜3 ml per well in 6-well and ˜15 ml per 10 cm dish every other day since adding 2-2.5 ml of fresh media to a well of 6-well plates was not sufficient for high confluence of cells during differentiation into cardiomyocytes, resulting in lower efficiency of cardiac differentiation. […] For the differentiation protocol without serum containing media, Iscove's Modified Dulbecco Media (IMDM, Sigma-Aldrich) with B27 supplement (-minus insulin version, Life Technologies) was used for mesoderm differentiation (Day 1 to Day 3) and IMDM media with B27 (regular version, Life Technologies) was used for further differentiation and maintenance (Day 4˜). […] For the comparison between different serum free monolayer cardiac differentiation protocols (FIG. 3), RPMI1640 media (Sigma-Aldrich) and Activin A and BMP4 (R & D Systems), B27 supplement (both regular & minus insulin version, Life Technologies), human albumin (Sigma) and L-ascorbic acid 2-phosphate (Sigma-Aldrich) were used to make the corresponding differentiation media. In case of using DMEM/F-12 media for serum-free protocol, all cells died during early stage of cardiac differentiation (data not shown). All images and movies were taken in the tissue culture room using TS100F-LED microscope operated by Nikon NIS-Elements with objectives (4×, CFI Plan Fluor DL, NA 0.13; 10×, CFI Achromat ADL, NA0.25; 20×, CFI Achromat LWD ADL, NA 0.4, Nikon). Antibodies to sarcomeric alpha-actinin (clone #EA-53, Sigma-Aldrich) were used for immunocytochemistry of human cardiomyocytes (3-4 weeks later after cardiac differentiation). The cell size was analyzed blindly by E. Uche-Anya using Fiji software (FIG. 6). FACS analyses were performed in Columbia Center for Translational Immunology (CCTI) using a BD FACS Calibur using control and patient cardiomyocytes at day 19. Standard protocol for FACS was used first with 0.5% saponin (Sigma-Aldrich) for permeabilization at blocking step and next with sarcomeric alpha-actinin antibody (Sigma-Aldrich, clone #EA-53, 1/200 dilution) or cardiac troponin T (clone #13-11, Thermo Scientific, 1/500 dilution) and goat anti-mouse Alexa Fluor 488 secondary antibody (Life Technologies, 1/500) in FACS buffer (0.1% saponin, 2% FBS and 2 mM EDTA in Hanks buffer in HEPES, HBSS). The FACS data analyses were blindly performed by J. Feng. The identical cell samples were also used before fixation, for RNA/cDNA preparation and gene expression profiling using qPCR. Dimethyl Sulfoxide (DMSO) quality is critical to get reproducible results using small compounds, especially CHIR99021 (CHIR, #1386, lot #6 & #7, Axon MedChem). DMSO should be kept from ambient air. […]

Experiment [2] relates to control (Ctrl) cardiomyocytes. The experiment can be described thus: Dual optical recording of action potentials (ArcLight) and calcium handling (R-GECO1) in control iPSC-derived cardiomyocytes. It counts as cell-based, human. The settings on record: 5 μM, 10 min. As to the method:
Plasmids of R-GECO1 (Addgene #32462) (Zhao et al., 2011) and ArcLight (Addgene #36857) (Jin et al., 2012) were used as template to amplify the cDNA using Phusion polymerase (Thermo Scientific) with primer sets that allowed us to add restriction enzyme site EcoRI and Kozak sequence before the start codon (without nuclear localization signal for R-GECO) and another site XhoI after the stop codon. These PCR products were subcloned into lentiviral vector that was prepared from LV-SD-Cre (Addgene, #12105, no longer available currently) digested with EcoRI and XhoI. XL-10 Gold competent cells (Agilent) transformed with these LV-SD vectors were inoculated at 24-30° C. The purified LV-SD vectors were transfected together with pCMV-dR8.2 dvpr and pCMV-VSV-G (Addgene #8455 & 8454) as follow: HEK293T cells that were plated at 5×10^5 cell/ml (2 ml per well) one day before were transfected with total 3.4 μg per well (ratio, LV-SD:dR8.2:VSV-G=8:8:1) and LF-2K (8.0 μl per well) in a 6-well plate. The next day the media was changed. Two days after transfection, culture media was harvested (again fresh media was added to transfected HEK 293T cells) and filtered using 0.45 μm PES filter (VWR) and then directly added to wells containing monolayer cardiomyocytes (at 2-3 weeks after inducing cardiac differentiation). No polybrene was used for viral infection. […]

The test system of experiment [3] is LQTS cardiomyocytes. The experiment can be described thus: Dual optical recording of action potentials (ArcLight) and calcium handling (R-GECO1) in LQTS (Timothy syndrome) iPSC-derived cardiomyocytes. It counts as cell-based, human. As to the method:
Plasmids of R-GECO1 (Addgene #32462) (Zhao et al., 2011) and ArcLight (Addgene #36857) (Jin et al., 2012) were used as template to amplify the cDNA using Phusion polymerase (Thermo Scientific) with primer sets that allowed us to add restriction enzyme site EcoRI and Kozak sequence before the start codon (without nuclear localization signal for R-GECO) and another site XhoI after the stop codon. These PCR products were subcloned into lentiviral vector that was prepared from LV-SD-Cre (Addgene, #12105, no longer available currently) digested with EcoRI and XhoI. XL-10 Gold competent cells (Agilent) transformed with these LV-SD vectors were inoculated at 24-30° C. The purified LV-SD vectors were transfected together with pCMV-dR8.2 dvpr and pCMV-VSV-G (Addgene #8455 & 8454) as follow: HEK293T cells that were plated at 5×10^5 cell/ml (2 ml per well) one day before were transfected with total 3.4 μg per well (ratio, LV-SD:dR8.2:VSV-G=8:8:1) and LF-2K (8.0 μl per well) in a 6-well plate. The next day the media was changed. Two days after transfection, culture media was harvested (again fresh media was added to transfected HEK 293T cells) and filtered using 0.45 μm PES filter (VWR) and then directly added to wells containing monolayer cardiomyocytes (at 2-3 weeks after inducing cardiac differentiation). No polybrene was used for viral infection. Seventy-two hours after transfection, the culture media was again collected and used as secondary infection. The next day media was changed to DF5 media for infected cardiomyocytes. In case of serum-free condition, Lenti-X concentrator (TaKaRa/Clontech) was used for media change, following the manufacture's instruction. Three to five days after the secondary infection, monolayer cardiomyocytes were transferred to 35 mm glass bottom culture dishes (7 mm diameter, No. 1.5 glass) coated with Geltrex. Nikon Ti-U epi-fluorescent microscope connected to EMCDD Digital Monochrome camera (Evolve, EVO-512-M-FW-16-AC, 512×512, Photometrics) was used with LED light source (Lumencore Spectra X 6 line LED system, with Chroma excitation mounted filters, ET395/25x, ET470/30, ET550/15x, ET640/30x;) with dichroic mirror and emission filter (dichroic mirror, D/F/Cy3/Cy5pc; emission, ET430/36 513/44 595/41 719/105) operated by MetaFlour (Molecular Devices, acquisition: exposure time, 20 ms; gain 3 (6×); transfer speed, 5 MHz, Image size: 512×512; binning, 1.0). Temperature of the bath solution was maintained at approximately 35° C. using a digital temperature controller (TC-344B, Warner Instruments) for the duration of the experiment. Nikon objective lens 40× (CF1 S Fluor, NA 0.90) for cell clusters and 60× (CFI Plan Apo Lambda H, NA 1.40) for single cells were used to capture two fluorescent signals as R-GECO1 (illumination control. 10 in 0-255, cy3) and ArcLight (150 in 0-255, FITC, 4 or 8 frames per sec). Isoproterenol (10 μM, Sigma Aldrich) and R-roscovitine (0.5 and 5 μM) were used for fluorescent imaging. The effect of serum concentration on the imaging using ArcLight and R-GECO1 in control and patient cells was not observed at approximately 35° C. […] Daily imaging in cardiomyocytes infected at day 15 was conducted for 18 days (day 23-40). Additional recordings were performed at day 90 to examine low long ArcLight and R-GECO1 signals are available.
A dual optical imaging system using two genetically encoded indicators, ArcLight for voltage and R-GECO1 for calcium transients, has been developed to efficiently phenotype the patient specific iPSC-derived cardiomyocytes derived from the serum containing protocol (Song, et al. Stem Cells Transl Med. 4(5):468-75 (2015)). […] Those phenotypes of Timothy syndrome patient iPSCs derived cardiomyocytes can be rescued by 5 μM Roscovitine treatment (FIGS. 2B-2C and FIG. 5).

Setting [4] is: monolayer of LQTS cardiomyocytes, serum-containing protocol (FIG. 5D).

On to `Cc1c[nH]c(-c2cnc(NCCNc3ccc(C#N)cn3)nc2-c2ccc(Cl)cc2Cl)n1` [CHIR], for which the beating cells result is “provided beating cardiomyocytes and Yes” in experiment [1] (CHIR 5 μM); “No” in experiment [1] (CHIR 10 μM); “No” in experiment [1] (CHIR 15 μM); “No” in experiment [1] (CHIR 20 μM). Moreover, the “beating cells, where in the well” value in experiment [1] (CHIR 5 μM) is given as “only around the center of well”.

`O=C1Nc2cc(Br)ccc2/C1=C1/Nc2ccccc2/C1=N\O` [BIO, (2′ Z,3′ £)-6-Bromoindirubin-3′-oxime]: the beating cells result in experiment [1] (BIO 1 μM) was “provided beating cardiomyocytes and Yes”; in experiment [1] (BIO 2 μM) it was “Yes”; in experiment [1] (BIO 4 μM), “No”; in experiment [1] (BIO 8 μM), “No”. Further, the “beating cells, where in the well” value in experiment [1] (BIO 2 μM) was “only around the edge of well”.

Turning to `CC[C@H](CO)Nc1nc(NCc2ccccc2)c2ncn(C(C)C)c2n1` [Roscovitine], the APD90 result is listed as “no effect” in experiment [2] (serum-free protocol (FIG. 5F)) and “positive effects” in experiment [3] (5 μM, 10 min, LQTS cardiomyocytes, serum-free condition (FIG. 5H)). Also, the “number of spontaneous calcium transients” value in experiment [2] (serum-free protocol (FIG. 5G)) is given as “no effect”; in experiment [3] (5 μM, 10 min, LQTS cardiomyocytes, serum-free condition (FIG. 5I)), “positive effects”; in experiment [3] (setting [4]), “increased”. For the same molecule, the “phenotypes in action potentials, channel inactivation and calcium handling in Timothy syndrome cardiomyocytes” value in experiment [3] was “rescued the phenotypes”. The “phenotypes of Timothy syndrome cardiomyocytes” value in experiment [3] (5 μM, cardiomyocytes derived using the serum-free protocol) is listed as “rescued the phenotypes”. Also, the “phenotypes (prolonged action potentials and abnormal calcium handling) of Timothy syndrome cardiomyocytes” value in experiment [3] (5 μM, cardiomyocytes from the serum-containing protocol) is given as “rescued”. Also, the “irregular calcium handling and electrical activities” value in experiment [3] (5 μM, single LQTS CMs, before, during and after treatment (FIG. 2B)) is “prevented”. The “action potential (APD90, 90% from peak)” value in experiment [3] (monolayer of LQTS cardiomyocytes, serum-containing protocol (FIG. 5C)) is “shortened”. For the same molecule, in experiment [3] (setting [4]), the beating rate result is listed as “increased”. The prolonged action potentials entry in experiment [3] (single LQTS cardiomyocytes, n=12, 4 lines from two patients (FIG. 2C)) is listed as “rescued”.
